Test [1] deals with Mycobacterium tuberculosis. The test can be described thus: Antibacterial activity against Mycobacterium bovis BCG. In kind it is functional. As to conditions: variant bovis BCG.
Test [2] deals with Mycobacterium tuberculosis. The test can be described thus: Inhibition of oleate production in Mycobacterium bovis BCG. In kind it is functional, variant bovis BCG. The settings on record: for inhibition: variant bovis BCG.

One may read the MIC99 as the lowest concentration that inhibits either 99% of growth or 99% of the strains tested, depending on the study. Low values mean greater potency, high ones weaker potency. One may read the Inhibition as the drop in the measured response relative to a control, in per cent. A lower Inhibition goes with a weak effect.

≈ marks a conversion by molar mass, not a printed value. Calls of active or inactive are those of the source. The calls are words filed in the database; no cut-off is given here.

Consider `CCCCOc1ccc(NC(=S)Nc2ccc(OCCCC)cc2)cc1`, for which the MIC99 in test [1] worked out at 0.5 µg/mL (≈ 1.34 µM). Also, the Inhibition in test [2] worked out at 94.25%.

In test [1], `CC(C)COc1ccc(NC(=S)Nc2ccc(OCC(C)C)cc2)cc1` came in with an MIC99 of 0.9 µg/mL (≈ 2.42 µM). Moreover, the Inhibition in test [2] is recorded as 51.62%.

On to `CCCSc1ccc(NC(=S)Nc2ccc(OCCC(C)C)cc2)cc1`, for which the MIC99 in test [1] was determined as 0.5 µg/mL (≈ 1.29 µM). Also, the Inhibition in test [2] amounted to 53.32%.

On to `CC(C)CSc1ccc(NC(=S)Nc2ccc(SCC(C)C)cc2)cc1`, for which the MIC99 in test [1] stood at 0.6 µg/mL (≈ 1.48 µM). Besides, in test [2], the inhibition result was “inactive”.

`CCCCOc1ccc(NC(=S)Nc2ccc(OCC(C)C)cc2)cc1`: the MIC99 in test [1] stood at 0.6 µg/mL (≈ 1.61 µM). This compound gave an Inhibition in test [2] of 63.99%.

`CC(C)CCOc1ccc(NC(=S)Nc2ccc(OCC(C)C)cc2)cc1` gave an MIC99 in test [1] of 0.9 µg/mL (≈ 2.33 µM). Besides, the Inhibition in test [2] is on record as 19.24%.

In test [1], `CC(C)CCOc1ccc(NC(=S)Nc2ccc(Cc3ccccc3)cc2)cc1` came in with an MIC99 of 1.1 µg/mL (≈ 2.72 µM). The compound also yielded an Inhibition in test [2] of 48.83%.

As to `CCCOc1ccc(NC(=S)Nc2ccc(OCCC)cc2)cc1`, the MIC99 in test [1] was 0.5 µg/mL (≈ 1.45 µM). The compound further yielded an Inhibition in test [2] of 90.76%.

Regarding `CCCCOc1ccc(NC(=S)Nc2ccc(SCC(C)C)cc2)cc1`, the MIC99 in test [1] was 0.7 µg/mL (≈ 1.8 µM). In test [2], this compound came in with an Inhibition of 17.75%.

Take `CC(C)CCOc1ccc(NC(=S)Nc2ccc(OCCC(C)C)cc2)cc1` [TIOCARLIDE]: the MIC99 in test [1] stood at 1.1 µg/mL (≈ 2.75 µM). The compound also had an Inhibition in test [2] of 61.02%.

Regarding `CCCCc1ccc(NC(=S)Nc2ccc(OCCC(C)C)cc2)cc1`, the MIC99 in test [1] is 0.6 µg/mL (≈ 1.62 µM). In test [2], the Inhibition came to 14.82%.

Turning to `CCCCc1ccc(NC(=S)Nc2ccc(OCCC)cc2)cc1`, the MIC99 in test [1] is 0.06 µg/mL (≈ 0.175 µM). In addition, the inhibition entry in test [2] was “inactive”.

For `CCCCOc1ccc(NC(=S)Nc2ccc(OCCC(C)C)cc2)cc1`, the MIC99 in test [1] was found to be 0.4 µg/mL (≈ 1.03 µM). In addition, the Inhibition in test [2] was determined as 79.96%.

`CCCCOc1ccc(NC(=S)Nc2ccc(SCCC)cc2)cc1` gave an MIC99 in test [1] of 0.06 µg/mL (≈ 0.16 µM). In test [2], the inhibition result was “inactive”.

`CCCCOc1ccc(NC(=S)Nc2ccc(Cc3ccccc3)cc2)cc1` returned an MIC99 in test [1] of 1.5 µg/mL (≈ 3.84 µM). The same compound returned an Inhibition in test [2] of 66.15%.

As for `CCCCOc1ccc(NC(=S)Nc2ccc(CCCC)cc2)cc1`, the MIC99 in test [1] amounted to 0.7 µg/mL (≈ 1.96 µM). Also, the inhibition result in test [2] is “inactive”.

As to `CCCCc1ccc(NC(=S)Nc2ccc(CCCC)cc2)cc1`, in test [1], the MIC99 came to 0.075 µg/mL (≈ 0.22 µM). Moreover, the inhibition entry in test [2] is “inactive”.

In the case of `CCCSc1ccc(NC(=S)Nc2ccc(Cc3ccccc3)cc2)cc1`, in test [1], the MIC99 came out at 1.75 µg/mL (≈ 4.46 µM). Besides, the inhibition entry in test [2] is “inactive”.
